# Assay results reported in the NIST ThermoML archive (doi:10.1016/j.fluid.2011.03.005).
# Numbers after ± are expanded uncertainties.
# What was measured:
# [1] = for mass density: 101.33 kPa, Liquid, Vibrating tube method
# [2] = Molar enthalpy of transition or fusion; conditions: Crystal; DSC
smiles,measurement,setting,value
CCC[N+]1(C)CCCCC1.O=S(=O)([N-]S(=O)(=O)C(F)(F)F)C(F)(F)F,mass density,[1]; 293.15 K,1414.1 ± 0.6 kg/m3
same,mass density,[1]; 298.15 K,1409.6 ± 0.6 kg/m3
same,mass density,[1]; 303.15 K,1405.3 ± 0.6 kg/m3
same,mass density,[1]; 308.15 K,1401 ± 0.6 kg/m3
same,mass density,[1]; 313.15 K,1396.6 ± 0.6 kg/m3
same,mass density,[1]; 318.15 K,1392.3 ± 0.6 kg/m3
same,mass density,[1]; 323.15 K,1388 ± 0.6 kg/m3
same,mass density,[1]; 328.15 K,1383.7 ± 0.6 kg/m3
same,mass density,[1]; 333.15 K,1379.4 ± 0.6 kg/m3
same,mass density,[1]; 338.15 K,1375.1 ± 0.6 kg/m3
same,mass density,[1]; 343.15 K,1370.9 ± 0.6 kg/m3
same,mass density,[1]; 348.15 K,1366.6 ± 0.6 kg/m3
same,mass density,[1]; 353.15 K,1362.3 ± 0.5 kg/m3
same,mass density,[1]; 358.15 K,1358.1 ± 0.5 kg/m3
same,mass density,[1]; 363.15 K,1353.9 ± 0.5 kg/m3
same,Normal melting temperature,"[1]; Crystal, DTA",12.6 ± 0.4 °C
same,Molar enthalpy of transition or fusion,[2],6.12 ± 0.167 kcal/mol
